From US7354593B2, “Coccidial vaccine and methods of making and using same” (Merial Limited, priority 2002, dated 2008)
Where two headings read alike, the source gives them in different places.

Key:
[1] = system: Salmonella; assay: Killing of Salmonella by oocyst processing agents
[2] = system: Mycoplasma; assay: Killing of Mycoplasma by oocyst processing agent
[3] = system: Clostridium sordelli; type: in vivo, Gallus domesticus (chicken); settings: necrotic enteritis mortality
Procedure: (§1) Observations. Birds were weighed by pen at 0 and 28 days and by pen and sex at 49 days. Dead birds were collected twice daily and necropsy performed to determine cause of death.
Concurrent Medications and Management of Adverse Events. The Coccivac vaccinated birds became sick 14 days into the trial. […] The responsible agent was identified as Clostridium sordelli. All birds in the trial were administered Penicillin G to decrease contamination, and the affects thereof, between pens and to eliminate any difference in treatments among the groups that could skew the coccidiosis results.
It is important to note that the Coccivac vaccinated birds became infected with Clostridium sordelli. Clostridial disease has been linked to infection with coccidiosis in the field. Even though the infection did spread to the other treatments, the Coccivac vaccinated birds were the most affected showing 11.77% mortality.

[4] = Floor pen phase: live weight, feed conversion and total mortality during 7-week grow-out; type: in vivo, Gallus domesticus (chicken)
Excerpt: The timeline was as follows. On Day 0, birds were weighed by pen. The birds in Groups 1 and 2 were vaccinated as described in Table 9, with 1300 birds per vaccine regime, divided between 2 pens, one in each half of the house. The birds in Group 3 were started on Salinomycin, 60 g/ton, divided as described for Groups 1 and 2. The pens were stocked. Extra hatchmates were retained in wire cages as unvaccinated chicks.
On Day 21, the feed from starter to grower was changed for all birds. Salinomycin was continued in Group 3.
On Day 42, all groups were changed to unmedicated finisher feed and the feed back was weighed.
On Day 49, all birds and feed were weighed and the trial was terminated.
Vaccination/Medication. Three treatments of birds identified as Groups 1-3 in Table 9, were replicated in half houses, three pens per house, 650 birds per pen, for a total of 1300 birds per treatment. Birds in […] were vaccinated as described in Table 9. An additional treatment group (4) was maintained separately in clean cages as unvaccinated, untreated controls, for use in the challenge test only.
Treatment Groups 1, 2, and 4 were given non-medicated feed. Treatment Group 3 was given Salinomycin (60 g/ton) beginning on Day 1 through Day 42. The birds in Group 3 to be challenged were given non-medicated feed after the move to the challenge cages. Starter feed was given until 21 days, grower until 42 days and finisher until 49 days. The feed issued was recorded, and any remaining unconsumed feed was weighed back at the time of feed changes and at termination.
as §1
(§2) Criteria for Measurement. The primary variables for the floor pen phase were live weights at 28 and 49 days and feed conversion at 49 days. For the challenge phase, primary variables were weight gain six days after challenge, and lesion scores of the upper, mid and cecal gut sections, also at six days after challenge.

[5] = system: E. acervulina, E. mitis, E. tenella, E. maxima; assay: Challenge phase: polyvalent oral challenge with virulent Eimeria, lesion scores and weight gain six days after challenge; type: in vivo, Gallus domesticus (chicken)
Excerpt: Six days following challenge, the vaccinates and controls from each of the Groups in Table 4 were sacrificed, weighed, and the intestines and ceca were examined and scored for lesions. Scoring was in accordance with the Johnson and Reid cocciodial scoring system, as described in Experimental Parisitology, Vol. 28, p 30-36, 1970, the disclosure of which is incorporated by reference in its entirety, as shown in Table 5.
On Day 28, the birds to be challenged were moved to wire cages. Salinomycin was discontinued in Group 3 birds to be challenged. All birds and feed we weighed. Fresh fecal samples were collected from the litter from each group in the large pens, 20 samples per pen. Oocysts by quantified by species.
On Day 29, birds in the cages were challenged using the number of oocysts described in Table 7.
On Day 35, the challenge birds were terminated, the lesions were scored, and weight gains were taken.
Challenge. At Day 28, 3 reps of 10 birds from each pen (total of 60 per treatment) were weighed and moved to the battery cages for challenge with field strains of Eimeria (corresponding to the species used in the vaccine). All birds were given non-medicated feed in the cages. On Day 29, birds of Groups 1-4 were challenged and then terminated on Day 35. Lesion scores and weights were recorded.
as §2

With `[K+].[K+].[O]=[Cr](=[O])([O-])[O][Cr](=[O])(=[O])[O-]` [potassium dichromate] the “killing of Salmonella” value [1] was “effectively killed”.

With `OCl` [sodium hypochlorite] the “killing of Salmonella” value [1] was “effectively killed” and the “killing of Mycoplasma” value [2] was “effectively killed”.

With `CC[C@@H](C(=O)[C@@H](C)[C@@H](O)[C@H](C)[C@@H]1O[C@@H]([C@@H](CC)C(=O)O)CC[C@@H]1C)[C@H]1O[C@]2(C=C[C@@H](O)[C@]3(CC[C@@](C)([C@H]4CC[C@](O)(CC)[C@H](C)O4)O3)O2)[C@H](C)C[C@@H]1C` [SALINOMYCIN, Salinomycin] the “% Mortality NE” value ([3]; 28 Day Summary) was 0.46%, the “% Mortality NE” value ([3]; 49 Day Summary) was 0.53% and the “% All Mortality” value ([4]; 28 Day Summary) was 3.76%. For the same compound, the “Feed Conversion” value ([4]; 28 Day Summary) was 1.383, the “Avg Live Wt” value ([4]; 28 Day Summary, commercial birds, floor pens) was 1.45 and the “% Mortality Total” value ([4]; 49 Day Summary) was 5.38%. For the same compound, the “Avg Live Female Wt” value ([4]; 49 Day Summary) was 2.63, the “Avg Live Male Wt” value ([4]; 49 Day Summary) was 3.17 and the “Avg Total Live Wt” value ([4]; 49 Day Summary) was 2.90. For the same compound, the “Feed Conversion” value ([4]; 49 Day Summary) was 1.86, the “Initial Wt.” value ([5]; Day 28, before challenge, 60 birds challenged per treatment) was 1435.47ab and the “Final Wt.” value ([5]; Day 35, six days after challenge) was 1488.97b. The “% Mortality Due to Coccidiosis” value ([5]; after challenge) was 0%, the “Ceca Lesion Score” value ([5]; ceca, six days after challenge, Johnson and Reid score 0 to +4) was 3.25a and the “Middle Lesion Score” value ([5]; mid gut, six days after challenge, Johnson and Reid score 0 to +4) was 2.90b. For the same compound, the “6 Day Wt. Gain” value ([5]; six days after challenge) was 53.50 days, the “ATLS (average total lesion score)” value ([5]; six days after challenge) was 2.88a and the “TLS (total lesion score)” value ([5]; six days after challenge) was 8.65a. The “Upper Lesion Score” value ([5]; upper intestine, six days after challenge, Johnson and Reid score 0 to +4) was 2.50a.
